Test results published in patent US11014911B2, “CDK2 inhibitors” (Pfizer Inc., priority 2019, dated 2021).

Key:
GSK3β (H350L) = GSK3β (H350L) (Homo sapiens (Human), UniProt P49841); test: biochemical; conditions: GSK3β Ki (nM)
Description: The assay was initiated with the addition of ATP, following 15 minutes pre-incubation of enzyme and inhibitor at room temperature in the reaction mixture. The reaction was stopped after 30 minutes at room temperature by the addition of 50 μL of 80 mM EDTA.

[1] = molecular target: CDK2/Cyclin E1 full length (Homo sapiens (Human), UniProt P24941); test: CDK2/Cyclin E1 full length mobility shift assay; type: biochemical

GSK3β (H350L), sequence (P49841 whole entry, stated change not applied): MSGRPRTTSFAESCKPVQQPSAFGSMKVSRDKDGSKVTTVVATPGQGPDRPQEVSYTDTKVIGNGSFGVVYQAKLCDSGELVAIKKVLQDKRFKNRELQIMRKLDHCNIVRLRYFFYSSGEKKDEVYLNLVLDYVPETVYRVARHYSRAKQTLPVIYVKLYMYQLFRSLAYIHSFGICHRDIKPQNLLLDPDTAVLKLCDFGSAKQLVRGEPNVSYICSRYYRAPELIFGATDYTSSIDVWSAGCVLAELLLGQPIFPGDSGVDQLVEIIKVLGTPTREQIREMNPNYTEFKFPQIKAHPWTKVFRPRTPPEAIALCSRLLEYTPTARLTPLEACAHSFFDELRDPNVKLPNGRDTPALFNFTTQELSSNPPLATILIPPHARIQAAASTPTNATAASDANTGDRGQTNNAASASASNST

Structure (SMILES) | Ki (GSK3β (H350L)) | Ki [1]
COc1cc(CC(=O)Nc2cc([C@H]3CC[C@@H](OC(=O)NC(C)CC(F)(F)F)C3)[nH]n2)ccn1 (single isomer, unassigned) [Example 77] | 19.7 nM | 0.39 nM
COc1cc(CC(=O)Nc2cc([C@H]3CC[C@@H](OC(=O)NC(C)C(C)(F)F)C3)[nH]n2)ccn1 (single isomer, unassigned) [Example 393] | 34 nM | 0.97 nM
CCC(CO)CNC(=O)O[C@@H]1CC[C@H](c2cc(NC(=O)Cc3cnc(C)s3)n[nH]2)C1 (single isomer, unassigned) [Example 528] | 3.6 nM | 1.11 nM
Cc1ccc(CC(=O)Nc2cc([C@H]3CC[C@@H](OC(=O)NC(C)CC(F)(F)F)C3)[nH]n2)cn1 (single isomer, unassigned) [Example 75] | 9.59 nM | 0.26 nM
Cc1cnc(CC(=O)Nc2cc([C@@H]3CC[C@H](OC(=O)NC4(C)CCOC4)C3)[nH]n2)o1 (single isomer, unassigned) [Example 475] | 23.9 nM | 0.83 nM
CCC1CCN1C(=O)O[C@@H]1CC[C@H](c2cc(NC(=O)Cc3cc(C)no3)n[nH]2)C1 (single isomer, unassigned) [Example 597] | 20.9 nM | 0.54 nM
CCC(NC(=O)O[C@@H]1CC[C@H](c2cc(NC(=O)Cc3ccnc(OC)c3)n[nH]2)C1)C(F)(F)F (single isomer, unassigned) [Example 405] | 97.9 nM | 1.37 nM
CC(CC(F)(F)F)NC(=O)O[C@@H]1CC[C@H](c2cc(NC(=O)Cc3cnn(C(C)C)c3)n[nH]2)C1 (single isomer, unassigned) [Example 408] | 17.9 nM | 0.29 nM
COc1cc(CC(=O)Nc2cc([C@H]3CC[C@@H](OC(=O)NC(C)CC(F)F)C3)[nH]n2)ccn1 (single isomer, unassigned) [Example 98] | 21.6 nM | 0.33 nM
CC1(NC(=O)O[C@@H]2CC[C@H](c3cc(NC(=O)Cc4ccccc4)n[nH]3)C2)CCOC1 (single isomer, unassigned) [Example 124] | 80.7 nM | 0.19 nM
Cc1cc(CC(=O)Nc2cc([C@H]3CC[C@@H](OC(=O)N4CCC4C)C3)[nH]n2)on1 (single isomer, unassigned) [Example 589] | 18.2 nM | 0.59 nM
CC(CC(F)(F)F)N(C)C(=O)O[C@@H]1CC[C@H](c2cc(NC(=O)Cc3cnn(C)c3)n[nH]2)C1 (single isomer, unassigned) [Example 413] | 14.7 nM | 0.44 nM
CC(CC(F)(F)F)NC(=O)O[C@@H]1CC[C@H](c2cc(NC(=O)Cc3cnco3)n[nH]2)C1 (single isomer, unassigned) [Example 83] | 33.3 nM | 0.69 nM
CC(CC(F)(F)F)NC(=O)O[C@@H]1CC[C@H](c2cc(NC(=O)Cc3ccon3)n[nH]2)C1 (single isomer, unassigned) [Example 64] | 18.7 nM | 0.14 nM
C[C@H](F)[C@H](C)NC(=O)O[C@@H]1CC[C@H](c2cc(NC(=O)Cc3cnn(C)c3)n[nH]2)C1 (single isomer, unassigned) [Example 382, (1R,3S)-3-(3-{[(1-methyl-1H-pyrazol-4-yl)acetyl]amino}-1H-pyrazol-5-yl)cyclopentyl [(2S*,3S*)-3-fluorobutan-2-yl]carbamate] | 74.2 nM | 0.77 nM
Cc1cc(CC(=O)Nc2cc([C@H]3CC[C@@H](OC(=O)NC(C)CC(F)(F)F)C3)[nH]n2)on1 (single isomer, unassigned) [Example 71] | 33.8 nM | 1.01 nM
Cc1cnc(CC(=O)Nc2cc([C@@H]3CC[C@H](OC(=O)NC4(C)CCOC4)C3)[nH]n2)o1 (single isomer, unassigned) [Example 476] | 30.9 nM | 0.45 nM
COCc1cc(C(=O)Nc2cc([C@H]3CC[C@@H](OC(=O)NC4(C)CCOC4)C3)[nH]n2)n(C)n1 (single isomer, unassigned) [Example 487] | > 47.6 nM | 0.67 nM
COc1cc(CC(=O)Nc2cc([C@H]3CC[C@@H](OC(=O)N4CCC4C)C3)[nH]n2)ccn1 (single isomer, unassigned) [Example 153] | 9.15 nM | 0.22 nM
COc1cnc(CC(=O)Nc2cc([C@H]3CC[C@@H](OC(=O)NC(C)CC(F)(F)F)C3)[nH]n2)cn1 (single isomer, unassigned) [Example 68] | 16.3 nM | 0.36 nM
CC1(NC(=O)O[C@@H]2CC[C@H](c3cc(NC(=O)Cc4cc(F)cc(F)c4)n[nH]3)C2)CCOC1 (single isomer, unassigned) [Example 121] | 19.4 nM | 0.08 nM
Cc1ncc(CC(=O)Nc2cc([C@H]3CC[C@@H](OC(=O)NC4(C)CCOC4)C3)[nH]n2)s1 (single isomer, unassigned) [Example 482] | 36.2 nM | 0.55 nM
COCc1cc(C(=O)Nc2cc([C@H]3CC[C@@H](OC(=O)NC4(C)CC4)C3)[nH]n2)n(C)n1 [Example 8, (1R,3S)-3-[3-({[3-(methoxymethyl)-1-methyl-1H-pyrazol-5-yl]carbonyl}amino)-1H-pyrazol-5-yl]cyclopentyl (1-methylcyclopropyl)carbamate] | 667 nM | 0.5 nM

Structure (SMILES) | Ki (GSK3β (H350L)) | Ki [1]
CC1(NC(=O)O[C@@H]2CC[C@H](c3cc(NC(=O)Cc4cnc(C(F)(F)F)cn4)n[nH]3)C2)CCOC1 (single isomer, unassigned) [Example 493] | 157 nM | 0.98 nM
CCC(CO)CNC(=O)O[C@@H]1CC[C@H](c2cc(NC(=O)Cc3ccnc(OC)c3)n[nH]2)C1 (single isomer, unassigned) [Example 535] | 3.8 nM | 1.21 nM
COc1cnc(CC(=O)Nc2cc([C@H]3CC[C@@H](OC(=O)NC4(C)CC4)C3)[nH]n2)cn1 [Example 6, (1R,3S)-3-(3-{[(5-methoxypyrazin-2-yl)acetyl]amino}-1H-pyrazol-5-yl)cyclopentyl (1-methylcyclopropyl)carbamate] | 32.3 nM | 0.38 nM
CC1(NC(=O)O[C@@H]2CC[C@H](c3cc(NC(=O)Cc4cnc(C(F)(F)F)cn4)n[nH]3)C2)CCOC1 (single isomer, unassigned) [Example 494] | 53.3 nM | 1.02 nM
CCC(NC(=O)O[C@@H]1CC[C@H](c2cc(NC(=O)Cc3cnc(C)s3)n[nH]2)C1)C(F)(F)F (single isomer, unassigned) [Example 403] | 76.1 nM | 1.76 nM
COc1ccc(S(C)(=O)=O)c(CC(=O)Nc2cc([C@H]3CC[C@@H](OC(=O)NC(C)C(F)(F)F)C3)[nH]n2)c1 (single isomer, unassigned) [Example 291] | > 47.6 nM | 0.43 nM
CCC1CCN1C(=O)O[C@@H]1CC[C@H](c2cc(NC(=O)Cc3cc(C)no3)n[nH]2)C1 (single isomer, unassigned) [Example 598] | 16.4 nM | 0.78 nM
Cc1ncc(CC(=O)Nc2cc([C@H]3CC[C@@H](OC(=O)NC(C)CC(F)(F)F)C3)[nH]n2)s1 (single isomer, unassigned) [Example 79] | 16.5 nM | 0.54 nM
Cc1cnc(CC(=O)Nc2cc([C@H]3CC[C@@H](OC(=O)NC(C)CC(F)(F)F)C3)[nH]n2)o1 (single isomer, unassigned) [Example 82] | 12.6 nM | 0.19 nM
COc1ccc(CC(=O)Nc2cc([C@H]3CC[C@@H](OC(=O)N4C[C@@H](C#N)[C@@H]4C)C3)[nH]n2)cn1 (single isomer, unassigned) [Example 158] | 0.78 nM | 0.17 nM
C[C@H]1[C@H](C#N)CN1C(=O)O[C@@H]1CC[C@H](c2cc(NC(=O)Cc3ccccc3)n[nH]2)C1 (single isomer, unassigned) [Example 161] | 5.93 nM | 0.15 nM
Cc1cc(CC(=O)Nc2cc([C@H]3CC[C@@H](OC(=O)NC(C)CC(F)(F)F)C3)[nH]n2)on1 (single isomer, unassigned) [Example 72] | 12.8 nM | 0.15 nM
Cc1ccc(C(=O)Nc2cc([C@H]3CC[C@@H](OC(=O)NC(C)CC(F)(F)F)C3)[nH]n2)cn1 (single isomer, unassigned) [Example 70] | 31.3 nM | 0.35 nM
CCC(NC(=O)O[C@@H]1CC[C@H](c2cc(NC(=O)Cc3ccnc(OC)c3)n[nH]2)C1)C(F)(F)F (single isomer, unassigned) [Example 406] | 73.3 nM | 1.81 nM
CCC1(C)CCN1C(=O)O[C@@H]1CC[C@H](c2cc(NC(=O)Cc3cc(C)no3)n[nH]2)C1 (single isomer, unassigned) [Example 603] | 13.8 nM | 0.07 nM
COc1cc(CC(=O)Nc2cc([C@H]3CC[C@@H](OC(=O)NC(C)CC(F)(F)F)C3)[nH]n2)ccn1 (single isomer, unassigned) [Example 78] | 8.9 nM | 0.15 nM
COCc1cc(C(=O)Nc2cc([C@H]3CC[C@@H](OC(=O)NC(C)CC(F)(F)F)C3)[nH]n2)n(C)n1 (single isomer, unassigned) [Example 9] | > 95.3 nM | 1.14 nM
Cc1ncc(CC(=O)Nc2cc([C@H]3CC[C@@H](OC(=O)NC(C)C(C)(F)F)C3)[nH]n2)s1 (single isomer, unassigned) [Example 391] | 38 nM | 1.38 nM
COc1cc(CC(=O)Nc2cc([C@H]3CC[C@@H](OC(=O)N[C@@H](C)[C@H](C)F)C3)[nH]n2)ccn1 (single isomer, unassigned) [Example 385, (1R,3S)-3-(3-{[(2-methoxypyridin-4-yl)acetyl]amino}-1H-pyrazol-5-yl)cyclopentyl [(2S*,3S*)-3-fluorobutan-2-yl]carbamate] | 25.9 nM | 0.52 nM
Cc1cnc(CC(=O)Nc2cc([C@H]3CC[C@@H](OC(=O)NC(C)CC(F)(F)F)C3)[nH]n2)o1 (single isomer, unassigned) [Example 81] | 32.9 nM | 1.48 nM
CCC(NC(=O)O[C@@H]1CC[C@H](c2cc(NC(=O)Cc3cc(C)no3)n[nH]2)C1)C(F)(F)F (single isomer, unassigned) [Example 397] | 155 nM | 1.87 nM
COCc1cc(C(=O)Nc2cc([C@H]3CC[C@@H](OC(=O)NC(C)CC(F)(F)F)C3)[nH]n2)n(C)n1 (single isomer, unassigned) [Example 10] | 101 nM | 0.25 nM
